Measurements: BindingDB's records for patent US20240409542 (Sitryx Therapeutics, 2024)

Molecular target: Pyruvate kinase PKM (Homo sapiens, UniProt P14618)
Test: Activation Assay Measuring In Vitro Activation of Recombinant Human PKM2
Method: Human PKM2 was diluted into Assay Buffer comprising 50 mM imidazole, 50 mM KCl, 7 mM MgCl2, 0.01% Tween20, 0.05% BSA (pH 7.2) to a final concentration of 5 pM. Enzyme-Assay Buffer mix was dispensed into a 384-well shallow-well white-walled plate (PerkinElmer) and Test Compounds added by acoustic dispense (Echo , Labcyte Inc.). […] Kinase-Glo Plus reagent was added to each well and the plates incubated for a further 15 minutes on an orbital shaker in the dark (300 rpm, 26° C.) before luminescence measurement on a plate reader (PHERAstar FSX, BMG Labtech).

Pyruvate kinase PKM, sequence (P14618 whole entry): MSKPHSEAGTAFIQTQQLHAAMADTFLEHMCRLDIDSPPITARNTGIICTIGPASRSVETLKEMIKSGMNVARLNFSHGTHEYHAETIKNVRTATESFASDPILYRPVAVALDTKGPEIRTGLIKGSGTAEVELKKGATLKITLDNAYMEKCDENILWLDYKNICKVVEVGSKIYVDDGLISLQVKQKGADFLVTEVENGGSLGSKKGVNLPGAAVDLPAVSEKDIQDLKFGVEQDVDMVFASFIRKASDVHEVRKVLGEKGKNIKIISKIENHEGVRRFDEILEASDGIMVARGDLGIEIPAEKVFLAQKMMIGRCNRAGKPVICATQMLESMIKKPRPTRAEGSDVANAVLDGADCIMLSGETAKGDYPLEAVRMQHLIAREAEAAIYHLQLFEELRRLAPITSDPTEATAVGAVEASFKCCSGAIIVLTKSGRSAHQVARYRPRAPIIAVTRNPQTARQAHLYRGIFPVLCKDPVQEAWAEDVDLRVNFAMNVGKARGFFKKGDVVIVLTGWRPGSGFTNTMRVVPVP

Cn1c2c(c3cnn(Cc4cccc(C(C)(C)O)c4)c(=O)c31)CCN(S(C)(=O)=O)C2 [US20240409542, Example 33]
EC50: 354 nM
